Assay results reported in patent US20220289727A1, “ENZYME INHIBITORS” (KALVISTA PHARMACEUTICALS LIMITED, priority 2019, published 2022).
pIC50: −log10 of the molar value.

Assays:
Human Factor XIIa = target: T1, Human Factor XIIa (Homo sapiens, UniProt P00748); assay: Determination of FXIIa inhibitory activity in vitro (fluorogenic substrate H-DPro-Phe-Arg-AFC); assay type: biochemical; conditions: 25° C., residual enzyme activity (initial rate)
T1 construct: Human Factor XIIa (Enzyme Research Laboratories) was incubated; purchased Enzyme Research Laboratories
T1 sequence (P00748 373-615 limits assumed): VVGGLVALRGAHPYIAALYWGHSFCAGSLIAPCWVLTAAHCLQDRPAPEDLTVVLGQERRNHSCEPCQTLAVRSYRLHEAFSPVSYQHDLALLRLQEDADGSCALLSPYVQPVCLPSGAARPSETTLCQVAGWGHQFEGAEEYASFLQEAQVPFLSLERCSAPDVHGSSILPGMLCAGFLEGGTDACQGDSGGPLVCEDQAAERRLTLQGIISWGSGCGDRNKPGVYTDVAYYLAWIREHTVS
T1 sequence (P00748 20-372 partner limits assumed): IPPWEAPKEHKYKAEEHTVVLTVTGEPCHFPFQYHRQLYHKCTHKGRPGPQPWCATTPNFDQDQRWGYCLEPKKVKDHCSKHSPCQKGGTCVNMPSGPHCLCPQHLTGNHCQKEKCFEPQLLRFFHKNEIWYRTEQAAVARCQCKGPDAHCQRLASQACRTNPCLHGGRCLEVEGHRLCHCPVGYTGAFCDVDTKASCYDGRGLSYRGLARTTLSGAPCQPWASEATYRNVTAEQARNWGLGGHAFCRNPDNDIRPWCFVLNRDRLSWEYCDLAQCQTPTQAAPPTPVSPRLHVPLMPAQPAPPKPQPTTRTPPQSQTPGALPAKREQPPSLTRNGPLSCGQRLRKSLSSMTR

Human FXIa = target: T2, Human FXIa (Homo sapiens, UniProt P03951); assay: Determination of FXIa inhibitory activity in vitro (fluorogenic substrate Z-Gly-Pro-Arg-AFC); assay type: biochemical; conditions: selectivity, 25° C., residual enzyme activity (initial rate)
T2 construct: Human FXIa (Enzyme Research Laboratories) was incubated; purchased Enzyme Research Laboratories
T2 sequence (P03951 388-625 limits assumed): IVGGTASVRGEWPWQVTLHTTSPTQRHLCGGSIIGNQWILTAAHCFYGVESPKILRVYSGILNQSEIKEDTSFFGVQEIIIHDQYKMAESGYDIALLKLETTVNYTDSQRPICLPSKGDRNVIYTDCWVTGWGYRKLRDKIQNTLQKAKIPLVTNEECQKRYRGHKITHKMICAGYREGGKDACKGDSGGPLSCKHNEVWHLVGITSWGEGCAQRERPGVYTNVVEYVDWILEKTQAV
T2 sequence (P03951 19-387 partner limits assumed): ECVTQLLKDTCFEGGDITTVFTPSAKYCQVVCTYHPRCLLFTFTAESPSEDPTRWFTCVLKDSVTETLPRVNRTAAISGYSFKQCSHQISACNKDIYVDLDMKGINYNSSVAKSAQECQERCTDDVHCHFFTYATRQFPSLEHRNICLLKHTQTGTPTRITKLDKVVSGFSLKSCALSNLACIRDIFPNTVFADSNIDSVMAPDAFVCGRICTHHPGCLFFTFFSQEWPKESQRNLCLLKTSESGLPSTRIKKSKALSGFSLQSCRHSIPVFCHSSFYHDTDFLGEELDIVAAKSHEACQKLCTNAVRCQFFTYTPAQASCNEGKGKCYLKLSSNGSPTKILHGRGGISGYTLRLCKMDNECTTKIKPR

Row | SMILES | pIC50 (Human Factor XIIa) | pIC50 (Human FXIa)
1 | Cc1cc(C(=O)NCc2ccc3c(N)nccc3c2)sc1CN1CCCN(c2ccncc2)CC1 [Example 5.24, N-((1-Aminoisoquinolin-6-yl)methyl)-4-methyl-5-((4-(pyridin-4-yl)-1,4-diazepan-1-yl)methyl) thiophene-2-carboxamide] | 5.00 to 5.52 | < 4.40
2 | Cc1cc(C(=O)NCc2ccc3c(N)nccc3c2)sc1CN1CC(Oc2ccncc2)C1 [Example 5.25, N-[(1-Amino-6-isoquinolyl)methyl]-4-methyl-5-[[3-(4-pyridyloxy)azetidin-1-yl]methyl]thiophene-2-carboxamide] | 4.40 to 5.00 | < 4.40
3 | Cc1cc(C(=O)NCc2ccc3c(N)nccc3c2)sc1CN1CCN(c2ccncn2)CC1 [Example 5.26, N-((1-Aminoisoquinolin-6-yl)methyl)-4-methyl-5-((4-(pyrimidin-4-yl)piperazin-1-yl)methyl) thiophene-2-carboxamide] | 4.40 to 5.00 | < 4.40
4 | Cc1cc(C(=O)NCc2ccc3c(N)nccc3c2)sc1CN1CCN(c2ccn(C)c(=O)c2)CC1 [Example 5.27] | 4.40 to 5.00 | < 4.40
5 | Cc1cc(C(=O)NCc2ccc3c(N)nccc3c2)sc1CN1CCN(c2cnn(C)c2)CC1 [Example 5.28] | 4.40 to 5.00 | < 4.40
6 | Cc1cc(C(=O)NCc2ccc3c(N)nccc3c2)sc1CN1CCN(c2cc[nH]c(=O)c2)CC1 [Example 5.29] | 4.40 to 5.00 | 4.41
7 | CNS(=O)(=O)c1sc(C(=O)NCc2ccc3c(N)nccc3c2)cc1Br [Example 25.07] | 5.52 to 6.00 | < 4.40
8 | Nc1nccc2cc(CNC(=O)c3cc(Cl)c(Cc4ccccc4)s3)ccc12 [Example 25.08] | 4.40 to 5.00 | < 4.40
9 | CN1CCC(c2ccc(C(=O)NCc3ccc4c(N)nccc4c3)s2)CC1 [Example 25.09] | 4.40 to 5.00 | < 4.40
10 | CN1CCC(Cc2sc(C(=O)NCc3ccc4c(N)nccc4c3)cc2Cl)CC1 [Example 25.10] | 5.00 to 5.52 | < 4.40
11 | Cc1cc(CN)cc(C)c1CNC(=O)c1cc(Cl)c(C)s1 [Example 25.102, N-(4-(Aminomethyl)-2,6-dimethylbenzyl)-4-chloro-5-methylthiophene-2-carboxamide] | 5.00 to 5.52 | < 4.40
12 | CN1CCC(Cn2c(C(=O)NCc3ccc4c(N)nccc4c3)cc3ccccc32)CC1 [Example 25.201] | 5.00 to 5.52 | < 4.40
13 | CCN1CCC(Cn2c(C(=O)NCc3ccc4c(N)nccc4c3)nc3ccccc32)CC1 [Example 25.202] | 5.52 to 6.00 | < 4.40
14 | Nc1nccc2cc(CNC(=O)c3cc4c(Cl)cccc4s3)ccc12 [Example 25.203, N-((1-Aminoisoquinolin-6-yl)methyl)-4-chlorobenzo[b]thiophene-2-carboxamide] | 5.52 to 6.00 | < 4.40
15 | Nc1nccc2cc(CNC(=O)c3cc4c(Cl)cccc4[nH]3)ccc12 [Example 25.207] | 5.52 to 6.00 | < 4.40
16 | CN1CCC(CNc2cnn(C)c2C(=O)NCc2ccc3c(N)nccc3c2)CC1 [Example 26.01] | 5.00 to 5.52 | < 4.40
17 | Cc1n[nH]c(C(=O)NCc2ccc3c(N)nccc3c2)c1NCC1CCN(C)CC1 [Example 26.02] | 4.40 to 5.00 | < 4.40
18 | Cc1cc(OCC2CCN(C)CC2)c(C(=O)NCc2ccc3c(N)nccc3c2)s1 [Example 26.04] | 4.40 to 5.00 | < 4.40
19 | Cc1cc(NCC2CCN(C)CC2)c(C(=O)NCc2ccc3c(N)nccc3c2)s1 [Example 26.05, N-((1-Aminoisoquinolin-6-yl)methyl)-5-methyl-3-(((1-methylpiperidin-4-yl)methyl)amino) thiophene-2-carboxamide] | 5.52 to 6.00 | < 4.40
20 | Cc1csc(C(=O)NCc2ccc3c(N)nccc3c2)c1NC(=O)C1CCN(C)CC1 [Example 26.07] | 4.40 to 5.00 | < 4.40
21 | Cc1c(Cl)sc(C(=O)NCc2ccc3c(N)nccc3c2)c1NCC1CCN(C)CC1 [Example 26.09] | 5.52 to 6.00 | < 4.40
